Assay results published in patent publication US20240287138A1, “CYCLIC PEPTIDES FOR INHIBITING TNF RECEPTOR 1 ACTIVITY” (Merck Sharp & Dohme LLC, priority 2023, published 2024).
Like-named read-outs stand apart in the source and are kept apart here. Numbered stars: 1 amine (or outer) side, 2 acyl side, 3 side chain; on linkers, the order of the positions; unused ones are H or OH. Square brackets hold non-standard residues; d marks the D form. Peptide text beside a SMILES is read from it. * marks the point of attachment. Trp(βS-Me,7-OMe) = COc1cccc2c([C@H](C)[C@H](N)C(=O)O)c[nH]c12; X51 = CCC[C@@H](c1c[nH]c2ccccc12)[C@H](N[*:1])C(=O)[*:2]; Phe(4-SO2NH2) = N[C@@H](Cc1ccc(S(N)(=O)=O)cc1)C(=O)O; Trp(7-CN) = N#Cc1cccc2c(C[C@H](N)C(=O)O)c[nH]c12; Trp(7-Cl) = N[C@@H](Cc1c[nH]c2c(Cl)cccc12)C(=O)O; Ala(pyrimidin-5-yl) = N[C@@H](Cc1cncnc1)C(=O)O; Phe(4-CONH2) = NC(=O)c1ccc(C[C@H](N)C(=O)O)cc1; Phe(4-COOH) = N[C@@H](Cc1ccc(C(=O)O)cc1)C(=O)O; Trp(7-aza) = N[C@@H](Cc1c[nH]c2ncccc12)C(=O)O; Asn(3S-OH) = NC(=O)[C@@H](O)[C@H](N)C(=O)O; X47 = NC[C@H]1C[C@H](C(=O)[*:2])N([*:1])C1; dPro(4S-NH2) = N[C@@H]1CN[C@@H](C(=O)O)C1; Pip(5R-OH) = O=C(O)[C@@H]1CC[C@@H](O)CN1; X1 = O=C([C@@H]1CC[C@H](N[*:1])C1)[*:2]; 4Pal = N[C@@H](Cc1ccncc1)C(=O)O; dHyp = O=C(O)[C@H]1C[C@H](O)CN1; αMeS = C[C@](N)(CO)C(=O)O; Carboxymethyl = O=C(O)C*; Nle = CCCC[C@H](N)C(=O)O; Sar = CNCC(=O)O

How the values were obtained:
[1] = target: T1, human soluble TNFR1 (sTNFR1) (Homo sapiens, UniProt P19438); experiment: Human sTNFR1-peptide displacement assay (LanthaScreen Eu TR-FRET binding assay)
T1 construct: made in house; host or cells: Sf21 (baculovirus)
T1 sequence (P19438 with tags, fused parts or gaps): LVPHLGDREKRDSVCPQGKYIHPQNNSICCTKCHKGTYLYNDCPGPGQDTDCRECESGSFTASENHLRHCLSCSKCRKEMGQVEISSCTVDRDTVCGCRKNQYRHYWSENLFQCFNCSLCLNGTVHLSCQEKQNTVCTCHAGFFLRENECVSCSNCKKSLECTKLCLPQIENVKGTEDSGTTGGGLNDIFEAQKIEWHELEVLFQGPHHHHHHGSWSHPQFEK
In short: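 Readout is the 665/615 nm TR-FRET ratio (Eu anti-His donor, streptavidin-Alexa647 acceptor), normalized to DMSO and saturating displacer, fit by Morrison-based five-parameter logistic for Kd^app. His-tagged sTNFR1 (1-211) prebound to 100 nM biotinylated peptide SEQ ID NO.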

[2] = target: T2, TNFα-induced NF-κB signal transduction pathway (TNFR1 signaling) in THP-1 cells (Homo sapiens, UniProt P19438); experiment: THP-1 Lucia NF-κB reporter cell assay, inhibition of TNFα-induced NF-κB signaling; assay type: cell-based; settings: THP-1 NF-κB Lucia reporter cells, 10 ng/mL TNFα, 16-18 h, secreted luciferase; read-out: THP-1 IC50
T2 sequence (P19438 30-455): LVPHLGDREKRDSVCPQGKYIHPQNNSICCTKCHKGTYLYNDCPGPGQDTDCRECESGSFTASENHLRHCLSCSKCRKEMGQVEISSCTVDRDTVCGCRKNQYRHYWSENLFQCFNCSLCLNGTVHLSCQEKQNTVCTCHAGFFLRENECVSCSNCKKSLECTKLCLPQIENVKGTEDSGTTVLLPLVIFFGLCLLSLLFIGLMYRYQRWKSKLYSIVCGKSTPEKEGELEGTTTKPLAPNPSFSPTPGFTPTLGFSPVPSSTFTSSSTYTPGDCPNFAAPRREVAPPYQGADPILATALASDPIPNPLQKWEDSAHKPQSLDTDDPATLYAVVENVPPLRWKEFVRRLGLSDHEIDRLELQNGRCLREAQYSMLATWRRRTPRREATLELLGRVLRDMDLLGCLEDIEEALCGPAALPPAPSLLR
In short: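 Read-out: secreted Lucia luciferase luminescence (QUANTI-Luc) from supernatant after 16-18 h, 37 °C, 10 ng/mL rhTNFα. Peptide pretreatment 1 h at 37 °C; 20,000 cells/well, selection antibiotics omitted. IC50 via 4-parameter logistic model against min/max controls.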

Row | Structure (SMILES) | Kd [1] [nM] | IC50 [2] [nM] | Kd ([1]; displacement of biotinylated peptide SEQ ID NO. 1 from sTNFR1, 20 point titration, 5-parameter fit based on Morrison equation (tight binding), read-out: TR-FRET Kd^app) [nM]
1 | CCCC[C@@H]1NC(=O)[C@@H]2CC[C@@H](C2)NC(=O)[C@H]([C@@H](C)c2c[nH]c3c(OC)cccc23)NC(=O)CN(C)C(=O)[C@H](Cc2ccc(C(=O)O)cc2)NC(=O)[C@H](Cc2ccc(C(N)=O)cc2)NC(=O)[C@](C)(CO)NC(=O)[C@H](Cc2c[nH]c3c(Cl)cccc23)NC(=O)[C@H](Cc2ccc(C(=O)O)cc2)NC(=O)[C@H](CC(N)=O)NC(=O)[C@H]2C[C@H](CN)CN2C(=O)[C@H](Cc2c[nH]c3ccccc23)NC(=O)[C@@H]2CC[C@@H](O)CN2C(=O)[C@H](Cc2ccncc2)NC1=O [SEQ ID NO. 15] (cyclo([4Pal][Pip(5R-OH)]W[X47]N[Phe(4-COOH)][Trp(7-Cl)][αMeS][Phe(4-CONH2)][Phe(4-COOH)][Sar][Trp(βS-Me,7-OMe)][X1][Nle])) | 0.1 | 0.5 | –
2 | CCCC[C@@H]1NC(=O)[C@@H]2CC[C@@H](C2)NC(=O)[C@H]([C@@H](C)c2c[nH]c3c(OC)cccc23)NC(=O)CN(C)C(=O)[C@H](Cc2ccc(C(=O)O)cc2)NC(=O)[C@H](Cc2ccc(C(N)=O)cc2)NC(=O)[C@](C)(CO)NC(=O)[C@H](Cc2c[nH]c3c(C#N)cccc23)NC(=O)[C@H](Cc2ccncc2)NC(=O)[C@H]([C@H](O)C(N)=O)NC(=O)[C@H]2C[C@H](O)CN2C(=O)[C@H](Cc2c[nH]c3ccccc23)NC(=O)[C@@H]2CC[C@@H](O)CN2C(=O)[C@H](Cc2ccncc2)NC1=O [SEQ ID NO. 25] (cyclo([4Pal][Trp(7-CN)][αMeS][Phe(4-CONH2)][Phe(4-COOH)][Sar][Trp(βS-Me,7-OMe)][X1][Nle][4Pal][Pip(5R-OH)]W[dHyp][Asn(3S-OH)])) | 0.04 | 0.8 | –
3 | CCCC[C@@H]1NC(=O)[C@@H]2CC[C@@H](C2)NC(=O)[C@H]([C@@H](CCC)c2c[nH]c3ccccc23)NC(=O)CN(C)C(=O)[C@H](Cc2ccc(C(=O)O)cc2)NC(=O)[C@H](Cc2ccc(C(N)=O)cc2)NC(=O)[C@](C)(CO)NC(=O)[C@H](Cc2c[nH]c3c(Cl)cccc23)NC(=O)[C@H](Cc2ccc(C(=O)O)cc2)NC(=O)[C@H](CC(N)=O)NC(=O)[C@H]2C[C@H](O)CN2C(=O)[C@H](Cc2c[nH]c3ccccc23)NC(=O)[C@@H]2CC[C@@H](O)CN2C(=O)[C@H](Cc2ccncc2)NC1=O [SEQ ID NO. 27] (cyclo([4Pal][Pip(5R-OH)]W[dHyp]N[Phe(4-COOH)][Trp(7-Cl)][αMeS][Phe(4-CONH2)][Phe(4-COOH)][Sar][X51][X1][Nle])) | 0.1 | 0.5 | –
4 | CCCC[C@@H]1NC(=O)[C@@H]2CC[C@@H](C2)NC(=O)[C@H]([C@@H](C)c2c[nH]c3c(OC)cccc23)NC(=O)CN(C)C(=O)[C@H](Cc2ccc(C(=O)O)cc2)NC(=O)[C@H](Cc2ccc(S(N)(=O)=O)cc2)NC(=O)[C@](C)(CO)NC(=O)[C@H](Cc2c[nH]c3c(C#N)cccc23)NC(=O)[C@H](Cc2ccncc2)NC(=O)[C@H](CC(N)=O)NC(=O)[C@H]2C[C@H](OCC(=O)O)CN2C(=O)[C@H](Cc2c[nH]c3ncccc23)NC(=O)[C@@H]2CC[C@@H](O)CN2C(=O)[C@H](Cc2ccncc2)NC1=O [SEQ ID NO. 31] (cyclo([4Pal][Trp(7-CN)][αMeS][Phe(4-SO2NH2)][Phe(4-COOH)][Sar][Trp(βS-Me,7-OMe)][X1][Nle][4Pal][Pip(5R-OH)][Trp(7-aza)][dHyp](Carboxymethyl)N)) | – | 0.4 | 0.04
5 | CCCC[C@@H]1NC(=O)[C@@H]2CC[C@@H](C2)NC(=O)[C@H]([C@@H](C)c2c[nH]c3c(OC)cccc23)NC(=O)CN(C)C(=O)[C@H](Cc2ccc(OCC(=O)O)cc2)NC(=O)[C@H](Cc2ccc(S(N)(=O)=O)cc2)NC(=O)[C@](C)(CO)NC(=O)[C@H](Cc2c[nH]c3c(C#N)cccc23)NC(=O)[C@H](Cc2ccc(OCC(=O)O)cc2)NC(=O)[C@H](CC(N)=O)NC(=O)[C@H]2C[C@H](N)CN2C(=O)[C@H](Cc2c[nH]c3ccccc23)NC(=O)[C@@H]2CC[C@@H](O)CN2C(=O)[C@H](Cc2cncnc2)NC1=O [SEQ ID NO. 37] (cyclo(NY(Carboxymethyl)[Trp(7-CN)][αMeS][Phe(4-SO2NH2)]Y(Carboxymethyl)[Sar][Trp(βS-Me,7-OMe)][X1][Nle][Ala(pyrimidin-5-yl)][Pip(5R-OH)]W[dPro(4S-NH2)])) | 0.09 | 0.6 | –
